Source: PMC9306553 (Angewandte Chemie (International Ed. in English), 2022)
Values belong to the molecule of their own block, whether it stands above or below them.

Columns and labels:
CCR9 [1] = molecular target: T1, CCR9 (Homo sapiens, UniProt P51686); assay type: cell-based; conditions: for effect on the CCR9 degradation by 13 (ELISA): co-treatment with 13, HEK293T cells transiently expressing CCR9
T1 sequence (P51686 1-357 isoform P51686-2): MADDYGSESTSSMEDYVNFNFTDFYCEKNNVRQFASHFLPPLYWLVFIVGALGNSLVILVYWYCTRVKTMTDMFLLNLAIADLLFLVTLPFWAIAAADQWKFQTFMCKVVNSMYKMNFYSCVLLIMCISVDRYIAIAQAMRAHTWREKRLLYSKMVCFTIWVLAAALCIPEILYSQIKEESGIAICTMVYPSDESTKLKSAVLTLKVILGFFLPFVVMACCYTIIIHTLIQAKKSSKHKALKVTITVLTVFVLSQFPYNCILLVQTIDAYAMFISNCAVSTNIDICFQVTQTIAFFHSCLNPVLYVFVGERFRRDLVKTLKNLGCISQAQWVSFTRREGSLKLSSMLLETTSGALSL

CCR9 [2] = molecular target: T1, CCR9; test: cell-based; conditions: tracer 3a 120 nM, live HEK293T cells expressing CCR9_Nluc
CCR9 [3] = molecular target: T2, CCR9 (Homo sapiens, UniProt P51686); test: cell-based; assay type: cell-based; conditions: for IC50: IC50 β-arrestin2 recruitment, HEK293T cells, stimulated with CCL25 31.6 nM
T2 sequence (P51686 1-369): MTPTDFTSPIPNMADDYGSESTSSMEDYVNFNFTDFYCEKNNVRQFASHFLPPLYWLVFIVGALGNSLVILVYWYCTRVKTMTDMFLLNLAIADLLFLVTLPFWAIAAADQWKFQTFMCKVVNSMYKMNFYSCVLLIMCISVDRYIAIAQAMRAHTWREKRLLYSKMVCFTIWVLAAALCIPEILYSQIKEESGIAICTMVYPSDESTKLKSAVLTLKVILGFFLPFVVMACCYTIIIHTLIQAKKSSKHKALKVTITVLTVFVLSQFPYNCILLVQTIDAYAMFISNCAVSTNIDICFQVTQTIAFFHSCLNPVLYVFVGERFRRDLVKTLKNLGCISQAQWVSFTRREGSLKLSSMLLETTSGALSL

CCR9 [4] = molecular target: T1, CCR9; test: biochemical; assay type: binding; conditions: CCR9_Nluc membranes; for Ki: tracer 3a 100 nM
CCR9 [5] = molecular target: T1, CCR9; test: cell-based; conditions: HEK293T cells, stimulated with CCL25 31.6 nM
CCR2 = molecular target: T3, CCR2 (Homo sapiens, UniProt P41597); test: BRET-based G protein activation assay, CCR2; assay type: cell-based; conditions: stimulated with CCL2 10 nM
T3 sequence (P41597 1-360 isoform P41597-2): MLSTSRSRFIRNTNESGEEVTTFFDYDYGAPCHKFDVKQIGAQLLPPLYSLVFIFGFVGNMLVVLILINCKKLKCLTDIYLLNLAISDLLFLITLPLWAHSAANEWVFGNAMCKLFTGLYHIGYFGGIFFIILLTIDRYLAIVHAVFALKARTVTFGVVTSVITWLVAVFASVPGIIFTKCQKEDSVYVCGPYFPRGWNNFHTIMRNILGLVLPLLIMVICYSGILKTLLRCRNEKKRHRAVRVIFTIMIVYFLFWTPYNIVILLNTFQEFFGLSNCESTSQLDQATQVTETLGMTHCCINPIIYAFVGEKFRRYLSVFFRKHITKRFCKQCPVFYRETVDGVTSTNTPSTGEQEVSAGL

[6] = pKi NanoBRET (in cells), mean±SEM
[7] = pKi NanoBRET (membranes), mean±SEM

Ki (CCR9 [2]; Ki NanoBRET (in cells)): 20.5 nM
Ki (CCR9 [2]; [6]): 19.1 nM
IC50 (CCR9 [3]): 166 nM
Ki (CCR9 [4]; Ki NanoBRET (membranes)): 13 nM
Ki (CCR9 [4]; [7]): 12.3 nM
IC50 (CCR9 [5]; IC50 Gαo activation): 256 nM
IC50 (CCR9 [5]; pIC50 Gαo activation, mean±SEM): 257 nM
Molecule: CC(C)(C)c1ccc(S(=O)(=O)Nc2ccc(Cl)cc2-c2cccnc2N)cc1 [compound 11]

inhibition of CCR2 (G protein activation) (CCR2): no inhibition
increase in potency compared to 1, β-arrestin recruitment (CCR9 [3]; 12 versus 1): ≈ 10 fold
Molecule: CC(C)(C)c1ccc(S(=O)(=O)Nc2ccc(Cl)cc2-c2cncnc2N)cc1 [compound 12]

The remaining lines, values behind:

Molecule: Cc1ncsc1-c1ccc(CNC(=O)[C@@H]2C[C@@H](O)CN2C(=O)[C@@H](N)C(C)(C)C)cc1 [(S,R,S)‐AHPC]
effect on CCR9 levels (ELISA) (CCR9 [1]; HEK293T cells transiently expressing CCR9, 14 h treatment): did not result in reduction of CCR9 levels
effect on the CCR9 degradation by 13 (ELISA) (CCR9 [1]): can be counteracted

Molecule: NS(=O)(=O)OC[C@@H]1C[C@@H](n2ccc3c(N[C@H]4CCc5ccccc54)ncnc32)C[C@@H]1O [MLN4924]
effect on the CCR9 degradation by 13 (ELISA) (CCR9 [1]): can be reduced

Molecule: CC(C)(C)c1ccc(S(=O)(=O)Nc2ccc(Cl)cc2-c2nccnc2N)cc1 [compound 10]
Ki (CCR9 [2]; Ki NanoBRET (in cells)): 11.5 nM
Ki (CCR9 [2]; [6]): 10.5 nM
IC50 (CCR9 [3]): 17.4 nM
Ki (CCR9 [4]; Ki NanoBRET (membranes)): 3.51 nM
Ki (CCR9 [4]; [7]): 3.24 nM
IC50 (CCR9 [5]; IC50 Gαo activation): 14.9 nM
IC50 (CCR9 [5]; pIC50 Gαo activation, mean±SEM): 14.8 nM

B1: CCL25: orthosteric CCR9 agonist (protein, UniProt O15444 24-150, looked up)
C-C motif chemokine 25: QGVFEDCCLAYHYPIGWAVLRRAWTYRIQEVSGSCNLPAAIFYLPKRHRKVCGNPKSREVQRAMKLLDARNKVFAKLHHNTQTFQAGPHAVKKLSSGNSKLSSSKFSNPISSSKRNVSLLISANSGL
effect on the binding of 3a to the IABS (CCR9 [4]; 3a 100 nM, prevented binding and displacement setup): did not affect the binding
